Columns and labels:
Assay type in all cases: in vivo
Hamlin orange = experiment: Fruit pull-force reduction after spraying trees, Hamlin orange; conditions: for % reduction in fruit pull force, day 5: day 5, mean
Protocol: Data are the means of 6 replicate branches, with 10 fruit/branch. Bars above and below the means indicate standard error of the mean.
(§1) Solutions of COR were prepared that contained 200 mg/L or 300 mg/L of COR dissolved in water and 0.125% Kinetic®. The solution was sprayed until “run-off,” typically about 5 L/tree. […] Under field conditions, canopies should not be sprayed if rainfall is anticipated within 24 hours. For comparison purposes, 200 mg/L to 400 mg/L Ethrel® solutions and a 0.125% Kinetic® solution were applied to trees. After several days, usually 3 to 10, differences in fruit pull-force were measured between COR and other treatments and is an indication of fruit loosening ability. […] Differences in fruit drop were also measured by counting or weighing dropped fruit.

Valencia orange [1] = experiment: Fruit drop after spraying trees, Valencia orange; conditions: for % fruit drop, day 5: day 5, mean
Protocol: (§2) Data are the means of 10 replicate branches, with 10 fruit/branch. Bars above and below the means indicate standard error of the mean.
as §1

Valencia orange [2] = experiment: Fruit pull-force reduction after spraying trees, Valencia orange; conditions: for % reduction in fruit pull force, day 5: 0.125% Kinetic, day 5, mean
Protocol: as §2, §1

[3] = COR compositions 200 or 300 mg/L

Structure (SMILES)	% reduction in fruit pull force, day 5 (Hamlin orange; 200 mg/L spray to run-off) [%]	% reduction in fruit pull force, day 5 (Hamlin orange; 300 mg/L spray to run-off) [%]	reduction of fruit pull-force (Hamlin orange; [3])	% fruit drop, day 5 (Valencia orange [1]; 200 mg/L spray to run-off) [%]	% fruit drop, day 5 (Valencia orange [1]; 300 mg/L spray to run-off) [%]	percentage of fruit drop as compared to Ethrel and the control (Valencia orange [1]; [3])	% reduction in fruit pull force, day 5 (Valencia orange [2]; 200 mg/L spray to run-off) [%]	% reduction in fruit pull force, day 5 (Valencia orange [2]; 300 mg/L spray to run-off) [%]	reduction of fruit pull-force (Valencia orange [2]; [3])
CC[C@H]1C=C(C(=O)N[C@@]2(C(=O)O)C[C@@H]2CC)[C@H]2CCC(=O)[C@H]2C1 [COR, Coronatine]	55	55.5	approximately 95%	50	63.3	substantially increased	96.1	96.3	approximately 95%
O=P(O)(O)CCCl [Ethrel ®, 2-chloroethyl phosphonic acid]	64	–	–	13.3	–	–	71.7	–	–
